Reference: ChEMBL document CHEMBL4334533, “Design, synthesis, and validation of novel nitrogen-based chalcone analogs against triple negative breast cancer” (Eur J Med Chem, 2020)
Values belong to the molecule of their own block, whether it stands above or below them. Calls of active or inactive are those of the source. The rule behind the calls is not given here.

Key:
MDA-MB-231 [1] = assay: Antimigratory activity in human MDA-MB-231 cells assessed as inhibition of cell motility after 24 hrs by microscopic analysis; type: functional, cell-based; settings: MDA-MB-231, 24 h
MDA-MB-231 [2] = assay: Antimigratory activity in human MDA-MB-231 cells assessed as wound diameter at 5 uM measured after 24 hrs by microscopic analysis; type: functional, cell-based
MDA-MB-231 [3] = assay: Inhibition of anchorage-independent colony formation in human MDA-MB-231 cells at 5 uM measured upto 21 days by soft agar colony formation assay; type: functional, cell-based
[4] = Selectivity index, ratio of LD50 for E6/E7 immortalized human HNME cells to IC50 for human MCF7 cells
MDA-MB-468 [5] = assay: Induction of morphological changes in human MDA-MB-468 cells assessed as mesenchymal-epithelial transition at 10 uM by inverted microscopic analysis; type: functional, cell-based
MCF7 [6] = assay: Antiinvasive activity in human MCF7 cells assessed as reduction in 10% FBS-induced cell invasion at 10 uM by crystal violet staining based matrigel assay relative to control; type: functional
[7] = Selectivity index, ratio of LD50 for E6/E7 immortalized human HNME cells to IC50 for human MDA-MB-468 cells
MCF7 [8] = assay: Induction of morphological changes in human MCF7 cells assessed as mesenchymal-epithelial transition at 10 uM by inverted microscopic analysis; type: functional, cell-based
MDA-MB-468 [9] = assay: Cell cycle arrest in human MDA-MB-468 cells assessed as accumulation at S phase at 10 uM measured after 48 hrs by propidium iodide staining-based flow cytometric analysis relative to control; type: functional
Chorioallantoic membrane = assay: Antiangiogenic activity in Leghorn chicken fertilized egg chorioallantoic membrane assessed as reduction in number of blood vessels at 4 ug measured after 4 days by microscopic analysis; type: functional, tissue-based; settings: Gallus gallus
MDA-MB-231 [10] = assay: Induction of morphological changes in human MDA-MB-231 cells assessed as mesenchymal-epithelial transition at 10 uM by inverted microscopic analysis; type: functional, cell-based
MDA-MB-231 [11] = assay: Cell cycle arrest in human MDA-MB-231 cells assessed as accumulation at S phase at 10 uM measured after 48 hrs by propidium iodide staining-based flow cytometric analysis relative to control; type: functional
MCF7 [12] = assay: Inhibition of anchorage-independent colony formation in human MCF7 cells at 5 uM measured upto 21 days by soft agar colony formation assay; type: functional, cell-based
MDA-MB-231 [13] = assay: Antiproliferative activity against human MDA-MB-231 cells assessed as inhibition of cell growth measured after 48 hrs by microplate reader analysis; type: functional, cell-based; settings: MDA-MB-231, 48 h
MDA-MB-468 [14] = assay: Antiproliferative activity against human MDA-MB-468 cells assessed as inhibition of cell growth measured after 48 hrs by microplate reader analysis; type: functional, cell-based; settings: MDA-MB-468, 48 h
MDA-MB-231 [15] = assay: Antiinvasive activity in human MDA-MB-231 cells assessed as reduction in 10% FBS-induced cell invasion at 10 uM by crystal violet staining based matrigel assay relative to control; type: functional; parameters: scale not given: the % may be the effect or the level left
[16] = Cytotoxicity against E6/E7 immortalized human HNME cells assessed as inhibition of cell growth measured after 48 hrs by microplate reader analysis; type: cell-based; settings: read-out: LD50
MDA-MB-468 [17] = assay: Antiinvasive activity in human MDA-MB-468 cells assessed as reduction in 10% FBS-induced cell invasion at 10 uM by crystal violet staining based matrigel assay relative to control; type: functional
MDA-MB-468 [18] = assay: Inhibition of anchorage-independent colony formation in human MDA-MB-468 cells at 5 uM measured upto 21 days by soft agar colony formation assay; type: functional, cell-based
MCF7 [19] = assay: Growth inhibition in human MCF7 cells at 10 uM after 48 hrs by MTT assay; type: functional, cell-based
[20] = Selectivity index, ratio of LD50 for E6/E7 immortalized human HNME cells to IC50 for human MDA-MB-231 cells
MDA-MB-231 [21] = assay: Growth inhibition in human MDA-MB-231 cells at 10 uM after 48 hrs by MTT assay; type: functional, cell-based
MCF7 [22] = assay: Antiproliferative activity against human MCF7 cells assessed as inhibition of cell growth measured after 48 hrs by microplate reader analysis; type: functional, cell-based; settings: MCF7, 48 h

IC50 (MDA-MB-231 [1]): 1.99 µM
SMILES: COc1cccc(C(=O)/C=C/c2ccc(N3CCCC3)cc2)c1
Activity (MDA-MB-231 [2]): Active

IC50 (MDA-MB-231 [1]): 5.71 µM
SMILES: O=C(/C=C/c1ccc(N2CCCC2)cc1)c1ccc2c(c1)OCO2
Activity (MDA-MB-231 [2]): Active

SMILES: COc1ccccc1C(=O)/C=C/c1ccc(N(CCCl)CCCl)cc1
IC50 (MDA-MB-231 [1]): 2.86 µM
Activity (MDA-MB-231 [2]): Active

SMILES: CS(=O)(=O)c1ccc(C(=O)/C=C/c2ccc(N(CCCl)CCCl)cc2)cc1
inhibition (MDA-MB-231 [3]): Active
Ratio LD50/IC50 [4]: 2.08
IC50 (MDA-MB-231 [1]): 6.14 µM
Activity (MDA-MB-468 [5]): Active
Activity (MCF7 [6]): Active
Ratio LD50/IC50 [7]: 2.21
Activity (MCF7 [8]): Active
Activity (MDA-MB-231 [2]): Active
Activity (MDA-MB-468 [9]): 46.8%
Activity (Chorioallantoic membrane): Active
Activity (MDA-MB-231 [10]): Active
Activity (MDA-MB-231 [11]): 28.7%
colony formation inhibition (activity call) (MCF7 [12]): Active
IC50 (MDA-MB-231 [13]): 7.44 µM
IC50 (MDA-MB-468 [14]): 13.3 µM
Activity (MDA-MB-231 [15]): 80%
CC50 at 48 h [16]: 29.4 µM
Activity (MDA-MB-468 [17]): Active
colony formation inhibition (active/inactive) (MDA-MB-468 [18]): Active
growth inhibition (GI) (MCF7 [19]): Active
Ratio LD50/IC50 [20]: 3.95
growth inhibition (GI) (MDA-MB-231 [21]): Active
IC50 (MCF7 [22]): 14.1 µM
